Source: ChEMBL document CHEMBL4316589, “Attachment of a 5-nitrofuroyl moiety to spirocyclic piperidines produces non-toxic nitrofurans that are efficacious in vitro against multidrug-resistant Mycobacterium tuberculosis” (Eur J Med Chem, 2019)
In brackets after ≈: the same amount, converted by molar mass.

Legend:
Assay type in all cases: functional
[1] = tested on: Mycobacterium tuberculosis; experiment: Antimycobacterial activity against patient-derived multidrug-resistant Mycobacterium tuberculosis 2712 measured after 7 days by resazurin dye-based assay; settings: Mycobacterium tuberculosis, 2712, 168 h
[2] = tested on: Mycobacterium tuberculosis; experiment: Antimycobacterial activity against patient-derived multidrug-resistant Mycobacterium tuberculosis 5023 measured after 7 days by resazurin dye-based assay; settings: Mycobacterium tuberculosis, 5023, 168 h
[3] = tested on: Mycobacterium tuberculosis; experiment: Antimycobacterial activity against patient-derived multidrug-resistant Mycobacterium tuberculosis 7106 measured after 7 days by resazurin dye-based assay; settings: Mycobacterium tuberculosis, 7106, 168 h

SMILES	MIC [1] [µg/mL]	MIC [2] [µg/mL]	MIC [3] [µg/mL]
COCCc1noc(CC2CCOC3(CCN(C(=O)c4ccc([N+](=O)[O-])o4)CC3)C2)n1 (stereo unspecified)	12.5 (≈ 28.8 µM)	12.5 (≈ 28.8 µM)	25 (≈ 57.5 µM)
O=C(c1ccc([N+](=O)[O-])o1)N1CCC2(CC1)CC(Cc1nc(C3CC3)no1)CCO2 (stereo unspecified)	3.1 (≈ 7.44 µM)	12.5 (≈ 30 µM)	6.2 (≈ 14.9 µM)
O=C(c1ccc([N+](=O)[O-])o1)N1CCC2(CCCCO2)CC1	6.2 (≈ 21.1 µM)	25 (≈ 84.9 µM)	25 (≈ 84.9 µM)
Cc1ccc(CC2CCOC3(CCN(C(=O)c4ccc([N+](=O)[O-])o4)CC3)C2)cc1 (stereo unspecified)	100 (≈ 251 µM)	3.1 (≈ 7.78 µM)	100 (≈ 251 µM)
O=C(c1ccc([N+](=O)[O-])o1)N1CCC2(CC1)CC(OCc1ccc(F)cc1)CCO2 (stereo unspecified)	25 (≈ 59.7 µM)	6.2 (≈ 14.8 µM)	6.2 (≈ 14.8 µM)
O=C(c1ccc([N+](=O)[O-])o1)N1CCC2(CC1)CC(Cc1nc(-c3cccnc3)no1)CCO2 (stereo unspecified)	1.6 (≈ 3.53 µM)	3.1 (≈ 6.84 µM)	6.2 (≈ 13.7 µM)
COc1ccc(CC2CCOC3(CCN(C(=O)c4ccc([N+](=O)[O-])o4)CC3)C2)cc1 (stereo unspecified)	6.2 (≈ 15 µM)	3.1 (≈ 7.48 µM)	3.1 (≈ 7.48 µM)
